Reference: paper PMC9664070, “The anticonvulsant phytocannabinoids CBGVA and CBDVA inhibit recombinant T-type channels” (Frontiers in Pharmacology, 2022)
“And” between values parts separate entries of the source, which are not always exact repeats. Identical values can stand only once.

Legend:
[1] = Plasma and brain exposure at anticonvulsant doses in mice (literature); assay type: in vivo; conditions: from peak plasma concentration and brain-plasma ratio
[2] = system: autaptic hippocampal neurons; parameters: method as in Straiker et al., 2021; conditions: ref Straiker et al., 2021; cited from earlier work
[3] = system: dorsal root ganglion neurons; parameters: method as in Straiker et al., 2021; conditions: ref Straiker et al., 2021; cited from earlier work
[4] = target: T1, GPR55 (Homo sapiens, UniProt Q9Y2T6); assay: Alphascreen ERK phosphorylation assay, antagonism of ML-186-induced ERK phosphorylation; assay type: cell-based; conditions: in the presence of EC80 of ML-186 (0.45 µM), HEK 293 GPR55 cells
T1 construct: expressed in transfected cells; host or cells: HEK 293
T1 sequence (Q9Y2T6 whole entry, species assumed): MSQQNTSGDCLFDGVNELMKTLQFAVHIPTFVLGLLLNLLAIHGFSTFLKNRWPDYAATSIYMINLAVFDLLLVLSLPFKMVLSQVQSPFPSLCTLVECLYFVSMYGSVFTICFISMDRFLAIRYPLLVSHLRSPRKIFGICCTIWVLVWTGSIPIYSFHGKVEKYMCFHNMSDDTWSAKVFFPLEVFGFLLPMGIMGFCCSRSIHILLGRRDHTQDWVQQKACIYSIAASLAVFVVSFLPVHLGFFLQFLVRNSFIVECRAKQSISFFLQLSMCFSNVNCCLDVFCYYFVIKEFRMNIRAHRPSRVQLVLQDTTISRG
Procedure: (§1) Unless otherwise stated, five independent experiments were performed for each condition, with each experiment conducted in duplicate. For the calcium assay, change in fluorescence by 10 mM Ca in the presence of drugs was normalised to change in fluorescence caused by 10 mM Ca in the presence of vehicle only to allow for comparison. In the Alphascreen assay, results were normalised to EC80 of ML-186 after subtraction of basal ERK phosphorylation (presence of a vehicle and 0.2% DMSO) to allow for easy comparison between phytocannabinoid activities. We fitted all concentration-response curves to a 4-parameter sigmoidal inhibitory response curve in GraphPad Prism (Version 6 GraphPad Software Inc., CA, United States) to derive IC50 and Emax values. All statistical analyses were conducted with GraphPad Prism. Two-tailed, unpaired t-tests were used to compare two data points and one-way ANOVA for more than two data points with Tukey post-hoc analysis. p-values < 0.05 were considered statistically significant.

[5] = system: hyperthermia-induced seizures; parameters: method as in earlier work; conditions: Scn1a+/- mice, ref Anderson et al., 2019, 2021a, 2021b; cited from earlier work
[6] = target: T2, Cav3.1 (Homo sapiens, UniProt O43497); assay: Whole-cell voltage-clamp electrophysiology in HEK293 Flp-In T-REx cells; assay type: cell-based; conditions: for V0.5 of voltage dependence of Cav3.1 activation / half-inactivation (V0.5), steady-state inactivation of Cav3.1: 5 µM compound; for Cav3.1 relative current at 50th action potential, % of first / inhibition of Cav3.1 peak current, second test pulse (P2), slow inactivated state / inhibition of Cav3.1 peak current, first test pulse (P1): 5 µM; for inhibition of Cav3.1 peak current, second test pulse (P2), slow inactivated state / inhibition of Cav3.1 peak current, first test pulse (P1): 2-pulse voltage protocol; for inhibition of Cav3.1 peak current, second test pulse (P2), slow inactivated state: after 10 s pre-conditioning pulse to −80 mV; for inhibition of Cav3.1 peak current, first test pulse (P1): before slow inactivation; for IC50: patch clamp, step −100 mV to −30 mV every 12 s, read-out: IC50, tonic inhibition of Cav3.1 current amplitude
T2 construct: expressed in transfected cells; host or cells: HEK293 Flp-In T-REx
T2 sequence (O43497 whole entry): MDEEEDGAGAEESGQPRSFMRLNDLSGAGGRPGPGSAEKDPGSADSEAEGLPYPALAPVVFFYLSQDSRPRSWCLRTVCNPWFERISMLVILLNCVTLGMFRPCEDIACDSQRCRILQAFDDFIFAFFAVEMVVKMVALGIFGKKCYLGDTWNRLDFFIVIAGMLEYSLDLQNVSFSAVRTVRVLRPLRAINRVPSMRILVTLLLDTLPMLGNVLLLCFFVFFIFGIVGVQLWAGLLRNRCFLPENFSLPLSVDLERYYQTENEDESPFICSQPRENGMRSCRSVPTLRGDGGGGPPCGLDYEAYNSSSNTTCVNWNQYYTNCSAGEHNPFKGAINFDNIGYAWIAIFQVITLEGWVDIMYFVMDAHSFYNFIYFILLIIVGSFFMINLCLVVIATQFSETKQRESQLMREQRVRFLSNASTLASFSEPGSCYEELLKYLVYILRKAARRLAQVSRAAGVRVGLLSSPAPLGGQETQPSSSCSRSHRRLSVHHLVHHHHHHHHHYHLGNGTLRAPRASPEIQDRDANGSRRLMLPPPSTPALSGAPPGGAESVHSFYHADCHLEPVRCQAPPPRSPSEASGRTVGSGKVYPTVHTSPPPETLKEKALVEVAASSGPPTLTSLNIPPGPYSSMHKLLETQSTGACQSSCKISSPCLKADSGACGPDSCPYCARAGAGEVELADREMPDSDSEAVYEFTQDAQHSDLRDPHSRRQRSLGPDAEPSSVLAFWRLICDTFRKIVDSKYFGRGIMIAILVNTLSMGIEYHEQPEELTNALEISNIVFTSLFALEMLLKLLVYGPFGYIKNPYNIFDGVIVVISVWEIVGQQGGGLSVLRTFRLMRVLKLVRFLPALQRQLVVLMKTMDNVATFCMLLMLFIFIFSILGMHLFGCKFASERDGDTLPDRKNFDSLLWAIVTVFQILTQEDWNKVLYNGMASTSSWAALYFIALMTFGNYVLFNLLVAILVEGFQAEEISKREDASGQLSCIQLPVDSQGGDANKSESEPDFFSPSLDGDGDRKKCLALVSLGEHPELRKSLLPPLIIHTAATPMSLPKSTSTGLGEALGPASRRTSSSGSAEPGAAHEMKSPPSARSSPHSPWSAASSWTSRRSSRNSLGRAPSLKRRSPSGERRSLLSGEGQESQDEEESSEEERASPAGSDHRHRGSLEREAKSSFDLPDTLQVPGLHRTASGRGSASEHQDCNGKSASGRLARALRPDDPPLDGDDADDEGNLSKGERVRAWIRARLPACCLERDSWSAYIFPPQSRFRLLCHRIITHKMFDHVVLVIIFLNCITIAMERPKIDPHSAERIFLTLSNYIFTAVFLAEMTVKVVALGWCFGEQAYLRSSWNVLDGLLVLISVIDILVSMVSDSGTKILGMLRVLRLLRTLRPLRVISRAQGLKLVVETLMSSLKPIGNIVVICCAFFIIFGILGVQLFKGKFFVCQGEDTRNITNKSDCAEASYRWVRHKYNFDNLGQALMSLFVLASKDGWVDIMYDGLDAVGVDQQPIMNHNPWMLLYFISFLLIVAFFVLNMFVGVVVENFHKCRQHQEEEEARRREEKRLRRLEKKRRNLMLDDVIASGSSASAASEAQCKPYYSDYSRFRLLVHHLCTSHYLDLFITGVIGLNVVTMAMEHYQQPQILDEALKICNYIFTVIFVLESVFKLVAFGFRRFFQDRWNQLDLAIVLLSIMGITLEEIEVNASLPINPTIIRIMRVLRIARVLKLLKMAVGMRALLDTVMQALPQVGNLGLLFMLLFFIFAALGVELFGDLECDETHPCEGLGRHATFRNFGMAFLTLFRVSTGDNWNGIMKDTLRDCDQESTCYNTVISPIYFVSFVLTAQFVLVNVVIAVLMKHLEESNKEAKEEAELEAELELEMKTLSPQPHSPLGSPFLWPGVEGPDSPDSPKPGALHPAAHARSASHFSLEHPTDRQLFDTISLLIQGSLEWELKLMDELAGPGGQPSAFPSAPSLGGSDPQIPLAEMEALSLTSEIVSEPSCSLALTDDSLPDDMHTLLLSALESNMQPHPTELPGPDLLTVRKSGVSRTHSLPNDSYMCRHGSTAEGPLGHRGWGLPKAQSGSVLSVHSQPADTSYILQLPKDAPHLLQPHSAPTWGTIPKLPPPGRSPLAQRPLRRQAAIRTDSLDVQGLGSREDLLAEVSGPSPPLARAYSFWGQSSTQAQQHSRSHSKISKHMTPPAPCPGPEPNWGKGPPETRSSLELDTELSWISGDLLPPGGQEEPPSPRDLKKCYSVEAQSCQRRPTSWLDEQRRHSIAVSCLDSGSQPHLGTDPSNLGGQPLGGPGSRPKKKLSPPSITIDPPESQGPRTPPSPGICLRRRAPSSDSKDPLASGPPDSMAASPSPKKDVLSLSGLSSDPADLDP
Procedure: All whole-cell voltage-clamp recordings from HEK293 Flp-In T-REx cells stably transfected with human Cav3.1, Cav 3.2 and Cav 3.3 were performed at room temperature. At least 24 h prior to experiments, cells were detached from flasks using trypsin/EDTA and plated into 10 cm sterile tissue culture dishes containing 10 ml of supplemented DMEM and 10–15 glass coverslips (12 mm diameter, ProScitech, QLD, Australia). Culture dishes were then kept overnight in same conditions as flasks to allow cells to adhere to coverslips. They were then transferred to a 30°C/5% CO2 incubator to inhibit cell proliferation until ready to be used for electrophysiology experiments. At this stage, channel expression was induced with tetracycline (2 μg/ml, Sigma-Aldrich) 8–24 h prior to recording cells.
External recording solutions contained (in mM): 114 CsCl, 5 BaCl2, 1 MgCl2, 10 HEPES, 10 glucose, adjusted to pH 7.4 with CsOH. The internal patch pipette solution contained (in mM): 126.5 CsMeSO4, 2 MgCl2, 11 EGTA, 10 HEPES adjusted to pH 7.3 with CsOH. Internal solution was supplemented with 0.6 mM GTP and 2 mM ATP and mixed thoroughly just before use. Liquid junction potentials for the above solutions were calculated before experiments using pClamp 10 software and corrected during experiments. Compounds were prepared daily from 30 mM DMSO stocks and diluted into an external solution just before use. Compounds were then applied rapidly and locally to the cells using a custom-built gravity-driven micro-perfusion system ([Feng et al., 2003]). […] Currents were elicited from a holding potential of -100 mV and were measured by conventional whole-cell patch clamp techniques using an Axopatch 200B amplifier in combination with Clampex 9.2 software. (Molecular Devices, Sunnyvale, CA). After establishing whole cell configuration, cellular capacitance was minimised using the amplifier’s built-in analogue compensation. Series resistance was kept to <10 MΩ and was compensated to at least 85% in all experiments. All data were digitised at 10 kHz with a Digidata 1,320 interface (Molecular Devices) and filtered at 1 kHz (8-pole Bessel filter). Raw and online leak-subtracted data were both collected simultaneously, P/N4 leak subtraction was performed using opposite polarity and after the protocol sweep.
For tonic inhibition of T-type currents, membrane potential was stepped from −100 mV to −30 mV for 200 ms and then allowed to recover for 12 s (1 sweep). A minimum of 10 sweeps were collected under vehicle control external perfusion to allow for control peak current to equilibrate. The drug was then continuously perfused, and sweeps were recorded until no further inhibition was seen (minimum of 3 sweeps with the same amplitude). In current-voltage relation studies, the membrane potential was held at −100 mV and cells were depolarised from −70 to 50 mV in 10 mV increments. For steady-state inactivation studies, a 3.6 s conditioning pre-pulse of various magnitudes (initial holding at −110 mV) was followed by a depolarising pulse to −30 mV. Individual sweeps were separated by 12 s to permit recovery from inactivation between conditioning pulses. The duration of the test pulse was typically 20 ms, and the current amplitude obtained from each test pulse was normalised to that observed at the holding potential of −100 mV.
The effect of CBGVA and CBDVA (5 µM each) on slow inactivation was tested using a 2-pulse voltage protocol as described in Bladen et al., (2021). Briefly, cells expressing Cav3.1 were initially depolarised with a 200 ms test pulse from -120 mV to −30 mV to generate peak current (P1) and followed by a 10 s pre-conditioning pulse to −80 mV to reverse fast inactivation. Cells were further depolarised with another 200 ms test pulse from −120 to −30 mV (P2) (Figure 2 inset).
THC and CBD cause substantial frequency-dependent inhibition of Cav3.2 and Nav1.8 channels, respectively ([Ross et al., 2008]; [Bladen et al., 2021]; [Zhang and Bean, 2021]). […]

[7] = system: diacylglycerol lipase; parameters: method as in de Petrocellis et al., 2011; conditions: ref de Petrocellis et al., 2011; cited from earlier work
[8] = ref Anderson et al., cited from earlier work; for Peak plasma concentration: anticonvulsant doses in mice, 2021b; for brain-plasma ratio: 2019
[9] = target: T3, Cav3.2 (Homo sapiens, UniProt O95180); assay: FLIPR calcium 5 assay, inhibition of 10 mM Ca-induced fluorescence; assay type: cell-based; conditions: FLIPR concentration-response, HEK293 Cav3.2 cells; read-out: IC50, inhibition of change in fluorescence, Cav3.2
T3 construct: expressed in transfected cells; host or cells: HEK293 Flp-In T-REx
Procedure: (§2) Calcium 5 dye (Molecular Devices, United States ) was used to investigate compound activities at T-type calcium channels using Flexstation III. HEK293 cells overexpressing Cav3.1, Cav 3.2, and Cav 3.3 cells were resuspended in Leibovitz’s L-15 media containing 1% FBS, 1% P/S and 15 mM glucose. 90 µl of the resuspended cells (120,000 cells/well) were plated in a black-walled, 96-well microplate (Corning, NY, United States ) and incubated overnight in humidified air at 37°C. Channel expression was induced with tetracycline (2 μg/ml, Sigma-Aldrich) at plating. On the day of the assay, 90 µl of HBSS containing 5% Calcium dye (bulk kit) and 2.5 mM probenecid (Invitrogen, United States ) was added to each well and incubated for 1 h at 37°C. Change in fluorescence was measured in a FlexStation III plate reader every 2 s (ʎexcitation = 485 nm, ʎemission = 525 nm) for the duration of the experiment at 37°C. After 2 min baseline recording, drugs (20 µL) were added and read for 5 min, followed by 10 mM CaCl2 (20 µl) and read for a further 3 min.
as §1
(§3) Our investigation of T-type channels began with a single-point screen, as described by [Bladen et al. (2021)]. We screened the inhibitory effect of 10 µM phytocannabinoids on the change in fluorescence elicited by the addition of 10 mM Ca^2+ in cells expressing Cav3.1, Cav3.2 or Cav3.3 channels ([Xie et al., 2007]; [Bladen et al., 2021]).

[10] = target: T4, Cav3.3 (Homo sapiens, UniProt Q9P0X4); assay: as above; assay type: cell-based; conditions: 10 µM compound, HEK293 cells, mean ± SEM
T4 construct: expressed in transfected cells; host or cells: HEK293 Flp-In T-REx
T4 sequence (Q9P0X4 whole entry): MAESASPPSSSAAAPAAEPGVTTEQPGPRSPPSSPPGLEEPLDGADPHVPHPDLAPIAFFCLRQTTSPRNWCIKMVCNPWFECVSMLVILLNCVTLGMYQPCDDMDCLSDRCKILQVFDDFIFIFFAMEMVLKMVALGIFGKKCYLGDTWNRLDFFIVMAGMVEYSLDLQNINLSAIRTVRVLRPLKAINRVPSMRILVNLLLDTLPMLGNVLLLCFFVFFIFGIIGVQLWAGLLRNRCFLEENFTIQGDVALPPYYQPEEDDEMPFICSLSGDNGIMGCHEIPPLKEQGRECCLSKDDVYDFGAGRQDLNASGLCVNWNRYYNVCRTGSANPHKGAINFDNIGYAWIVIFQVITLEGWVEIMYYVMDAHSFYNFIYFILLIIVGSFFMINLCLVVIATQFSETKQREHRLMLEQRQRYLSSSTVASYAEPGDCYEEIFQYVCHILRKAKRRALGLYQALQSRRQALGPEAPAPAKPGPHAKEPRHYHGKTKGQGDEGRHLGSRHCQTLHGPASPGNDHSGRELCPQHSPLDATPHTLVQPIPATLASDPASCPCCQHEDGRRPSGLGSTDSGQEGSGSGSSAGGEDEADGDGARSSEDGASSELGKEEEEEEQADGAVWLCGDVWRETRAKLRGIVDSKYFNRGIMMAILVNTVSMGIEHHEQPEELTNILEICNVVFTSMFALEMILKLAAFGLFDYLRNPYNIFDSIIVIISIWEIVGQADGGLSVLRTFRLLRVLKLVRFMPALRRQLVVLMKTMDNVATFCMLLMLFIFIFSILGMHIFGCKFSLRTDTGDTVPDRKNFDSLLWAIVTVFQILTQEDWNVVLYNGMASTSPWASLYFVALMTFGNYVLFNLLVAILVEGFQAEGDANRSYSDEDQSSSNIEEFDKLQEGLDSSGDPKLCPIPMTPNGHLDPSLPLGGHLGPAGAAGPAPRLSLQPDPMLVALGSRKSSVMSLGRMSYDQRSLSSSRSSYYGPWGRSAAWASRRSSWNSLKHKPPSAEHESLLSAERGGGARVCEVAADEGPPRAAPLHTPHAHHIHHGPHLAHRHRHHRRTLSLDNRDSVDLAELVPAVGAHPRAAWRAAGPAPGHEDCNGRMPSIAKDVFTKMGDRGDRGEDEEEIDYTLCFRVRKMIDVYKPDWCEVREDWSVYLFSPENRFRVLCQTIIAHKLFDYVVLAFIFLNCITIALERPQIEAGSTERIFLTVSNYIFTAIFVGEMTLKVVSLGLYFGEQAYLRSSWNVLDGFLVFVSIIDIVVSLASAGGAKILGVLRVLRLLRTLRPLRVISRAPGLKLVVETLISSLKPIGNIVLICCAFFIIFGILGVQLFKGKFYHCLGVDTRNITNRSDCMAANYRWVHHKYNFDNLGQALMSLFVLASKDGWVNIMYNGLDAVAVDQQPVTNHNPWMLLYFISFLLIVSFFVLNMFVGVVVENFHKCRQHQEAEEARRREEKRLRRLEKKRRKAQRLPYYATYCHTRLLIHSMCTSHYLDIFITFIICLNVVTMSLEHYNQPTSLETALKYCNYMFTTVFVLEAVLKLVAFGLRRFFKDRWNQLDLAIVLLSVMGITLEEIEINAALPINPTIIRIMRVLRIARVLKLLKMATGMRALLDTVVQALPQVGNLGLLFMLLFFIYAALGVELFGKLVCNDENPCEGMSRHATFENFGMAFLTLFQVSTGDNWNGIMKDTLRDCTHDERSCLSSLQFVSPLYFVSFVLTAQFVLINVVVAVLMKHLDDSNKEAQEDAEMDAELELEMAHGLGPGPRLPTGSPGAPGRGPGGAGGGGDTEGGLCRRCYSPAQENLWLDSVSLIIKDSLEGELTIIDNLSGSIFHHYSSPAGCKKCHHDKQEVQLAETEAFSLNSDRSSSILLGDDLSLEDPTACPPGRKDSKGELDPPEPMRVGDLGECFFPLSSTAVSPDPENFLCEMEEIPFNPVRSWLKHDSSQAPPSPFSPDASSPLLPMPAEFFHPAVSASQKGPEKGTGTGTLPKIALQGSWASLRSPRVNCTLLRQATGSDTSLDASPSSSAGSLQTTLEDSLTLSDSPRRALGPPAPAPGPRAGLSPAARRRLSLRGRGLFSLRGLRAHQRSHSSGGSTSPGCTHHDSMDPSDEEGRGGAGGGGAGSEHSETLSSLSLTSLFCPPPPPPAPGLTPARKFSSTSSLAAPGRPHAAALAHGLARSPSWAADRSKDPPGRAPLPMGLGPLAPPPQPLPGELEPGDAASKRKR
Procedure: as §2, §1, §3

[11] = target: T2, Cav3.1; assay: as above; assay type: cell-based; conditions: for IC50: FLIPR concentration-response, HEK293 Cav3.1 cells, read-out: IC50, inhibition of change in fluorescence, Cav3.1; for % Inhibition of Fluorescence Cav3.1: 10 µM compound, 10 mM Ca-induced fluorescence, HEK293 cells, mean ± SEM
Procedure: as §2, §1, §3

| Compound | expected brain concentration [1] | effect on excitatory neurotransmission [2] | effect on calcium responses [3] | IC50 [4] | effect against hyperthermia-induced seizures [5] | V0.5 of voltage dependence of Cav3.1 activation [6] | half-inactivation (V0.5), steady-state inactivation of Cav3.1 [6] | Cav3.1 relative current at 50th action potential, % of first ([6]; 0.4 Hz stimulation) | Cav3.1 relative current at 50th action potential, % of first ([6]; 0.8 Hz stimulation) | inhibition of Cav3.1 peak current, second test pulse (P2), slow inactivated state [6] | inhibition of Cav3.1 peak current, first test pulse (P1) [6] | Cav3.1 relative current at 50th action potential, % of first ([6]; 2.0 Hz stimulation) | IC50 [6] | inhibition of diacylglycerol lipase [7] | Peak plasma concentration [8] | brain-plasma ratio [8] | IC50 [9] | % Inhibition of Fluorescence Cav3.3 [10] | IC50 [11] | % Inhibition of Fluorescence Cav3.1 [11] |
| --- | --- | --- | --- | --- | --- | --- | --- | --- | --- | --- | --- | --- | --- | --- | --- | --- | --- | --- | --- | --- |
| C=C(C)[C@@H]1CCC(C)=C[C@H]1c1c(O)cc(CCC)c(C(=O)O)c1O [CBDVA, cannabidivarinic acid] | 5 µM | did not alter excitatory neurotransmission | did not alter calcium responses | 10 µM | anticonvulsant | −54.7 ± 1.2 mV | −70.9 ± 0.5 mV | 90 ± 1% | 93 ± 1% | 45 ± 5% | 35 ± 5% | 83 ± 1% | 7 µM | inhibit the endocannabinoid synthetic enzyme diacylglycerol lipase at a relatively high concentration | ~239 µM | 2% | 11 µM | 8 ± 4% | 2000 nM | – |
| CCCCCc1cc(O)c(C/C=C(\C)CCC=C(C)C)c(O)c1C(=O)O [CBGA, cannabigerolic acid] | – | – | – | – | anticonvulsant | – | – | – | – | – | – | – | – | – | – | – | – | – | – | – |
| CCCc1cc(O)c(C/C=C(\C)CCC=C(C)C)c(O)c1C(=O)O [CBGVA, cannabigerovarinic acid] | 48 µM | – | – | 8 µM | anticonvulsant | −49.1 ± 0.5 mV | −82.1 ± 0.8 mV | 73 ± 3% | 88 ± 1% | 72 ± 3% | 61 ± 3% | 77 ± 1% | 3 µM | – | approximately 1,200 µM | 4% | 2 µM | 35 ± 11% | 6000 nM | – |
| CCCc1cc(O)c(C/C=C(\C)CCC=C(C)C)c(O)c1 [CBGV] | – | – | – | – | – | – | – | – | – | – | – | – | – | – | – | – | – | 6 ± 3% | – | < 80% and 51 ± 14% |
| CC(C)[C@H]1c2ccc(F)cc2CC[C@@]1(CCN(C)CCCc1nc2ccccc2[nH]1)OC(=O)C1CC1 [NNC550396, reference compound] | – | – | – | – | – | – | – | – | – | – | – | – | – | – | – | – | – | 89 ± 2% | 730 nM | 82 ± 8% |
